From US9963496B2, “Stable glucagon analogues and use for treatment of hypoglycaemia” (Novo Nordisk A/S, priority 2014, dated 2018) come the findings set out here.

*1 amine or outer side, *2 acyl side, *3 side chain or, on linkers, in order; H or OH if unused. Where a SMILES comes first, the peptide text is derived from it. Side-chain parts run from the residue outwards. The star is where a group is joined. γGlu = O=C(O)[C@H](CCC(=O)[*:2])N[*:1]; Desaminohistidyl = O=C(CCc1c[nH]cn1)*

Series [1] in a line: physchem. It counts as physicochemical. The conditions noted are these: pH 7.5. An excerpt: Assay (III): ThT Fibrillation Assay for the Assessment of Physical Stability of Peptide Compositions The purpose of this assay is to assess the physical stability of the glucagon derivatives of the invention in aqueous solutions. Low physical stability of a peptide may lead to amyloid fibril formation, which is observed as well-ordered, thread-like macromolecular structures in the sample, which eventually may lead to gel formation. This has traditionally been measured by visual inspection of the sample. However, that kind of measurement is very cumbersome and depending on the observer. Therefore, the application of a small molecule indicator probe is much more advantageous. Thioflavin T (ThT) is such a probe and has a distinct fluorescence signature when binding to fibrils [Naiki et al. (1989) Anal. Biochem. 177, 244-249; LeVine (1999) Methods. Enzymol. 309, 274-284]. Here, as depicted in FIG. 1, F is the ThT fluorescence at the time t. The constant t0 is the time needed to reach 50% of maximum fluorescence. The two important parameters describing fibril formation are the lag-time calculated by t0−2τ and the apparent rate constant kapp 1/τ. Samples were prepared freshly before each assay. Each sample composition is described in the legends. The pH of the sample was adjusted to the desired value using appropriate amounts of concentrated NaOH and HCl. Thioflavin T was added to the samples from a stock solution in H2O to a final concentration of 1 μM. Sample aliquots of 200 μl (250 μM of the glucagon derivative/analogue in 10 mM HEPES buffer, pH 7.5) were placed in a 96 well microtiter plate (Packard OptiPlate™-96, white polystyrene). Usually, four or eight replica of each sample (corresponding to one test condition) was placed in one column of wells. The plate was sealed with Scotch Pad (Qiagen). Incubation at given temperature, shaking and measurement of the ThT fluorescence emission were done in a Fluoroskan Ascent FL fluorescence platereader (Thermo Labsystems). The plate was incubated 37° C. with orbital shaking adjusted to 960 rpm with an amplitude of 1 mm. Fluorescence measurement was done using excitation through a 444 nm filter and measurement of emission through a 485 nm filter. Each run was initiated by incubating the plate at the assay temperature for 10 min. The plate was measured every 20 minutes for a desired period of time. Between each measurement, the plate was shaken and heated as described. After completion of the ThT assay the four or eight replica of each sample was pooled and centrifuged at 20000 rpm for 30 minutes at 18° C. The supernatant was filtered through a 0.22 μm filter and an aliquot was transferred to a HPLC vial. The concentration of peptide in the initial sample and in the filtered supernatant was determined by reverse phase HPLC using an appropriate standard as reference. The percentage fraction the concentration of the filtered sample constituted of the initial sample concentration was reported as the recovery. The measurement points were saved in Microsoft Excel format for further processing and curve drawing and fitting was performed using GraphPad Prism. The background emission from ThT in the absence of fibrils was negligible. The data points were typically a mean of four or eight samples and shown with standard deviation error bars. Only data obtained in the same experiment (i.e. samples on the same plate) were presented in the same graph ensuring a relative measure of fibrillation between experiments. The data set may be fitted to Eq. (1).

Series [2] deals with T1, human glucagon receptor (Homo sapiens, UniProt P47871).
T1 construct: expressed in transfected cells; host or cells: BHK cells, clone BHK hGCGR A3*25; isolated membranes
T1 sequence (P47871 26-477): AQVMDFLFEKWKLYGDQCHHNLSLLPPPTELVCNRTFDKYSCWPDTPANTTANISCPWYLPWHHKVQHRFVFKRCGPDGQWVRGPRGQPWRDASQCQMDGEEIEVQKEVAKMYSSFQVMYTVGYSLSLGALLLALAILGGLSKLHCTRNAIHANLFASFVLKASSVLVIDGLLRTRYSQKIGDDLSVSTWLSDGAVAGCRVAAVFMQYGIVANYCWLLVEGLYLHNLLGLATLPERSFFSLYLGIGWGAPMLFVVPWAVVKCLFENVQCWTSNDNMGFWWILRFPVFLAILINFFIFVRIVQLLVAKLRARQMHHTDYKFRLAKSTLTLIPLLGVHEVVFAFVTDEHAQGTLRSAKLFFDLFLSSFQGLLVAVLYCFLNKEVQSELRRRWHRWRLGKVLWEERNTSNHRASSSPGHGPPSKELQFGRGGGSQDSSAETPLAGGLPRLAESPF
Briefly: Assay (I)(b): glucagon receptor activation, CRE luciferase reporter gene assay in BHK cells. It counts as cell-based. Particulars: BHK cells expressing human glucagon receptor and CRE luciferase, 3 h incubation; read-out: EC50 hGlucagonR. As for the experimental part: The purpose of this assay is to test the activity, or potency, of the derivatives of the invention, in vitro. The in vitro potency is the measure of human GLP-1 receptor and/or glucagon receptor activation, respectively, in a whole cell assay.
In vitro potency was determined by measuring the response of human GLP-1 or glucagon receptor, respectively, in a reporter gene assay. The assay was performed in a stably transfected BHK cell line that expressed either the human GLP-1 receptor or the human glucagon receptor and contained the DNA for the cAMP response element (CRE) coupled to a promoter and the gene for firefly luciferase (CRE luciferase). […] When assay incubation was completed, the luciferase substrate (luciferin) was added and the enzyme converted luciferin to oxyluciferin and produced bioluminescence. The luminescence was measured as the readout for the assay.
(b) Glucagon Receptor Activation
The cells used in this assay (clone pLJ6′-4-25) were BHK cells with BHK570 as a parent cell line expressing the CRE luciferase gene (clone BHK/KZ10-20-48) and were established by further transfection with the human glucagon receptor (clone pLJ6′ in pHZ-1 vector).
The cells were cultured at 5% CO2 in DMEM medium with 10% FBS, 1× GlutaMAX, 1 mg/mL G418, 240 nM MTX (methotrexate) and 1% pen/strep (penicillin/streptomycin). They were aliquoted and stored in liquid nitrogen. Before each assay, an aliquot was taken up and washed three times in PBS before being suspended at the desired concentration in assay buffer. For 96-well plates the suspension was made to give a final concentration of 5×10 EE3 cells/well.
Assay Medium consisted of DMEM w/o phenol red, 10 mM Hepes, lx GlutaMAX, 2% Ovalbumin and 0.2% Pluronic F-68.
Cell stocks were thawed in a 37° C. water bath. Cells were washed three times in PBS. The cells were counted and adjusted to 5×10 EE3 cells/50 μl (1×10 EE5 cells/mL) in Assay Medium. A 50 μl aliquot of cells was transferred to each well in the assay plate.
Stocks of the test compounds and reference compounds were diluted to a concentration of […] in Assay Medium. Compounds were diluted 10-fold to give the following concentrations: […], 2×10 EE-7 M, 2×10 EE-8 M; 2×10 EE-9 M, 2×10 EE-10 M, 2×10 EE-11 M, 2×10 EE-12 M and 2×10 EE-13 M. For each compound a blank assay buffer control was also included.
A 50 μl aliquot of compound or blank was transferred from the dilution plate to the assay plate. Compounds were tested at the following final concentrations: 1×10 EE-6 M, 1×10 EE-7 M, 1×10 EE-8 M; 1×10 EE-9 M, 1×10 EE-10 M, 1×10 EE-11 M and 1×10 EE-12 M and 1×10 EE-13 M.
The assay plate was incubated for 3 h in a 5% CO2 incubator at 37° C. The assay plate was removed from the incubator and allowed to stand at room temperature for 15 min. A 100 μl aliquot of steadylite plus reagent was added to each well of the assay plate (reagent is light sensitive). Each assay plate was covered with aluminum foil to protect it from light and shaken for 30 min at room temperature. Each assay plate was read in a Packard TopCount NXT instrument.
The data from the TopCount instrument was transferred to GraphPad Prism software. The software performed a non-linear regression (log(agonist) vs response-Variable slope (four parameter)). EC50 values were calculated by the software and reported in pM.
On the technique in general: Reporter assays use an easily measured gene product as a stand-in for the process of interest.

In series [1], `CC(=O)N[C@@H](CCC(=O)N[C@@H](CCC(=O)N[C@@H](CCC(=O)N[C@@H](CCC(=O)NCCCC[C@H](NC(=O)[C@@H](NC(=O)[C@H](Cc1ccccc1)NC(=O)[C@H](CC(=O)O)NC(=O)[C@H](CCC(N)=O)NC(=O)[C@H](C)NC(=O)[C@H](CCCNC(=N)N)NC(=O)[C@H](CCCNC(=N)N)NC(=O)[C@H](C)NC(=O)[C@H](CC(=O)O)NC(=O)[C@H](CC(C)C)NC(=O)[C@H](Cc1ccc(O)cc1)NC(=O)[C@H](CCCCN)NC(=O)[C@H](CO)NC(=O)[C@H](Cc1ccc(O)cc1)NC(=O)[C@H](CC(=O)O)NC(=O)[C@H](CO)NC(=O)[C@@H](NC(=O)[C@H](Cc1ccccc1)NC(=O)[C@@H](NC(=O)CNC(=O)[C@H](Cc1c[nH]cn1)NC(=O)[C@H](CO)NC(=O)CCc1c[nH]cn1)[C@@H](C)O)[C@@H](C)O)C(C)C)C(=O)N[C@@H](Cc1c[nH]c2ccccc12)C(=O)N[C@@H](CC(C)C)C(=O)N[C@@H](CC(C)C)C(=O)N[C@@H](CO)C(=O)N[C@H](C(=O)O)[C@@H](C)O)C(=O)O)C(=O)O)C(=O)O)C(=O)O` [Example 20, N^ϵ24-[(4S)-4-[[(4S)-4-[[(4S)-4-[[(4S)-4-acetamido-4-carboxybutanoyl]amino]-4-carboxybutanoyl]amino]-4-carboxybutanoyl]amino]-4-carboxybutanoyl]-[Imp1, His3, Ala16, Lys24, Leu27, Ser28]-Glucagon] (Desaminohistidyl-SHGTFTSDYSKYLDARRAQDFVK([γGlu-γGlu-γGlu-γGlu-Ac])WLLST-OH) had a recovery at 250 μM of 105%. The EC50 (as a rule, the concentration needed to bring the measured effect to its halfway point) in series [2] amounted to 4 pM.
For `CC(=O)N[C@@H](CCC(=O)N[C@@H](CCC(=O)N[C@@H](CCC(=O)N[C@@H](CCC(=O)NCCCC[C@H](NC(=O)[C@@H](NC(=O)[C@H](CO)NC(=O)[C@H](CC(C)C)NC(=O)[C@H](CC(C)C)NC(=O)[C@H](Cc1c[nH]c2ccccc12)NC(=O)[C@H](CCC(N)=O)NC(=O)[C@@H](NC(=O)[C@H](Cc1ccccc1)NC(=O)[C@H](CCC(=O)O)NC(=O)[C@H](CCC(N)=O)NC(=O)[C@H](C)NC(=O)[C@H](CCCNC(=N)N)NC(=O)[C@H](CCCNC(=N)N)NC(=O)[C@H](CO)NC(=O)[C@H](CCC(=O)O)NC(=O)[C@H](CC(C)C)NC(=O)[C@H](Cc1ccc(O)cc1)NC(=O)[C@H](CCCCN)NC(=O)[C@H](CO)NC(=O)[C@H](Cc1ccc(O)cc1)NC(=O)[C@H](CC(=O)O)NC(=O)[C@H](CO)NC(=O)[C@@H](NC(=O)[C@H](Cc1ccccc1)NC(=O)[C@@H](NC(=O)CNC(=O)[C@H](Cc1c[nH]cn1)NC(=O)[C@H](CO)NC(=O)CCc1c[nH]cn1)[C@@H](C)O)[C@@H](C)O)C(C)C)[C@@H](C)O)C(=O)O)C(=O)O)C(=O)O)C(=O)O)C(=O)O` [Example 16, N^α([Imp1, His3, Glu15, Glu21, Leu27, Ser28]-Glucagonyl)-N{Epsilon}[(4S)-4-[[(4S)-4-[[(4S)-4-[[(4S)-4-acetamido-4-carboxybutanoyl]amino]-4-carboxybutanoyl]amino]-4-carboxybutanoyl]amino]-4-carboxybutanoyl]Lys] (Desaminohistidyl-SHGTFTSDYSKYLESRRAQEFVQWLLSTK([γGlu-γGlu-γGlu-γGlu-Ac])-OH), in series [1], the recovery at 250 μM amounted to 61%. The EC50 in series [2] worked out at 4 pM.
